Counter-ions that a name gives are not always drawn.
Key:
human patients = assay: single, escalating dose human clinical trial (safety); assay type: in vivo; conditions: oral, 50, 100, 200 and 400 mg BID
rats [1] = assay: acute toxicity study in rats; conditions: rat, in vivo
rats [2] = assay: long-term (91-day) safety assessment study in rats; assay type: in vivo
From the text: These changes were not associated with any gross clinical abnormality.

[3] = molecular target: T1, GST-cGB-PDE5 fusion protein (cGMP binding sites of human PDE5A) (Homo sapiens, UniProt O76074); assay: cGMP binding assay with GST-cGB-PDE5 fusion protein
T1 construct: made in house; host or cells: E. coli BL21 (DE3)
From the text: RT-PCR method is used to obtain the cGB domain of PDE5 with forward and reverse primers designed from bovine PDE5A cDNA sequence (McAllister-Lucas L. M. et al, J. Biol. Chem. 268, 22863-22873, 1993) and the selection among PDE 1-10 families. 5′-3′, Inc. kits for total RNA followed by oligo (dT) column purification of mRNA are used with HT-29 cells. […] It is then cloned into pGEX-5X-3 glutathione-S-transferase (GST) fusion vector (Pharmacia Biotech )with tac promoter, and EcoR1 and XhoI cut sites. The fusion vector is then transfected into E. Coli BL21 (DE3) bacteria (Invitrogen). The transfected BL21 bacteria is grown to log phase, and then IPTG is added as an inducer. The induction is carried at 20° C. for 24 hrs. The bacteria are harvested and lysed. The soluble cell lysate is incubated with GSH conjugated Sepharose 4B (GSH-Sepharose 4B). The GST-cGB-PDE5 fusion protein can bind to the GSH-Sepharose beads, and the other proteins are washed off from beads with excessive cold PBS.
Then, the mixture is transferred to Brandel MB-24 cell harvester with GF/B as the filter membrane followed by 2 washes with 10 mL of cold 5 mM potassium buffer(pH 6.8). The membranes are then cut out and transferred to scintillation vials followed by the addition of 1 mL of H2O and 6 mL of Ready Safe™ liquid scintillation cocktail to each vial. The vials are counted on a Beckman LS 6500 scintillation counter.
The quenching by filter membrane or other debris are also calibrated.

rats [4] = assay: seven-day dose-range finding study in rats; assay type: in vivo; conditions: seven days
dogs [5] = assay: acute and seven-dose toxicity in dogs (capsules); conditions: dog, in vivo
Experimental: Therefore, these dogs were subsequently administered seven consecutive doses of 1000 mg/kg/day.

PDE5 = molecular target: T2, PDE5 (Homo sapiens, UniProt O76074); assay: competitive binding (with cGMP) to PDE5
T2 construct: partially purified cGMP-specific PDE isolated from HT-29 cells; endogenous in cells; host or cells: HT-29

PDE1 = assay: PDE inhibition, similar protocols: PDE1; assay type: biochemical
PDE4 = assay: PDE inhibition, similar protocols: PDE4; assay type: biochemical
rats [6] = assay: 28-day study in rats; assay type: in vivo
Experimental: A 28-day study in rats was also carried out at 0, 50, 500 and 2000 mg/kg/day.

dogs [7] = assay: 91-day oral study in dogs; assay type: in vivo
U937 cells = assay: apoptosis induction of U937 cells (active caspase 3 immunofluorescence); assay type: cell-based; set-up: apoptosis as reflected by active caspase 3 (FIG. 8): dose or concentration left out as unconfirmed; conditions: for Percentage of apoptotic cells / Number of apoptotic cells: 24 hrs; for Number of apoptotic cells: active caspase 3, 500 cells scored
Experimental: U937 cells (from ATCC Rockville, Md.) were grown in RPMI media supplemented with 5% FCS, glutamine, antibiotic/antimycotic and sodium pyruvate. Total RNA was isolated from two U937 cultures, one treated with 5 nM TPA for 48 hours and one grown in normal media as listed above, using the Rouche High Pure RNA Isolation Kit (cat# 1 828 665) as per manufacturers protocol. cDNA was then synthesized from the total RNA using GibcoBRL SuperscriptII (Cat # 18064-022) reverse transcriptase as per manufacturers protocol. The resulting cDNA was used as a template for RT-PCR reactions using primer sets specific for PDE2 (forward: […], reverse: […]) or PDE5 (forward: […], reverse: […]). mRNA for PDE2 and 5 were both present in the untreated U937 cells. Upon treatment with TPA, the relative amounts of PDE2 mRNA increased 5 fold. Therefore, U937 cells treated with TPA and driven to differentiate into an activated macrophage like state have elevated levels of PDE2 mRNA (see FIG. 1).
The presence of PDE2 and PDE5 protein within U937 cells was confirmed by indirect immunofluorescence (IIF). U937 cells were cultured as above. Two U937 cultures, one grown in the presence of 5 nM TPA for 48 hours and one grown in normal media were processed. All cultures were collected by centrifugation (Shandon Cytospin, 2 minutes @ 600 rpm) onto poly-L lysine-coated slides and immediately fixed in fresh 3% paraformaldehyde buffered in PBS for 10 minutes. Adherent cultures were grown on coverslips and fixed as above. Cells were permeablized in 0.2% triton-100 for 2 minutes. Slides were blocked with blocking buffer (5% goat serum, 5% glycerol, 1% gelatin from cold water fish skin and 0.04% NaN3 in PBS) for 1 hour at room temperature.
Adherent cells were dislodged by treatment with trypsin EDTA for 5 minutes at 37° C. Cells were then processed for IIF as described above, except that an antibody specific for active caspase 3 was used (as per manufacturer's protocol) instead of antibodies to PDE2 or 5 (Promega Cat. #G7481). The anti-active caspase 3 antibody was diluted 1:200 in blocking buffer and processed according to the manufacturer's protocol. The resulting slides were observed under a fluorescent microscope and a digital images were obtained.
The level of apoptosis in U937 cells was quantified by scoring 500 consecutive cells for the presence of active caspase 3.
The cells were harvested and processed for IIF as described above using an antibody that specifically recognizes active caspase 3. […] Therefore, the inhibition of only PDE4 or PDE5 alone (i.e. without the inhibition of PDE2) is not sufficient to induce apoptosis in U937 cells.

[8] = test system: TNF-α secreted by TPA-induced U937 cells; assay: TNF-α immunoassay on U937 cell culture media; assay type: cell-based
Experimental: One function of macrophages is to modulate the activity of other inflammatory cells through various cytokine molecules.
TNF-α levels in the cell culture media were determined by using the TNF-α Immunoassay from R&D Systems (Cat. # DTA50) according to the manufacturer's protocol.

[9] = 28 days, 50, 500 and 2000 mg/kg/day
[10] = U937, TPA 5 nM, 16 hrs, then 1 uM

CC1=C(CC(=O)NCc2ccccc2)c2cc(F)ccc2/C1=C\c1ccncc1 [Compound 38, (Z)-5-Fluoro-2-Methyl-(4-Pyridylidene)-3-(N-Benzyl) Indenylacetamide Hydrochloride]
side effects (human patients): no significant side effects | body weight gain (rats [1]; ip, 1000 mg/kg): reduced body weight gain | necropsy findings (rats [1]; ip, 1000 mg/kg): mesenteric adhesions seen in some animals | body weight gains (rats [1]; po, 2000 mg/kg): slightly reduced | clinical biochemistry and hematology (rats [2]; 91 days): no changes in clinical biochemistry and hematology | microscopic finding, follicular cells (rats [2]; 91 days, 500 mg/kg/day): follicular cell hypertrophy | microscopic finding, kidneys (rats [2]; 91 days, 200 and 500 mg/kg/day): increase in accumulation of hyalin droplets in the kidneys | microscopic finding, liver (rats [2]; 91 days, 200 and 500 mg/kg/day): slight hepatocellular hypertrophy | organ weights (rats [2]; 91 days, males and females at 200 and 500 mg/kg/day): dose-related trend to increased liver and thyroid/parathyroid weights | toxicological effects (rats [2]; oral, 91 consecutive days, 50, 200 and 500 mg/kg/day): did not produce any major toxicological effects | binding to the cGMP-binding site of PDE5 [3]: does not bind | signs of toxicity (rats [4]; 50 mg/kg/day): no observable signs of toxicity | treatment-related effects (rats [4]; 500 mg/kg/day): increase in absolute and relative liver weights in female rats | treatment-related effects (rats [4]; 2000 mg/kg/day): labored breathing and/or abnormal respiratory sounds, decreased weights gains and food consumption in male rats, and increased liver weights in female rats | hematology, blood chemistry, microscopic pathology (rats [4]; any dose level (50, 500, 2000 mg/kg/day)): No hematological or blood chemistry changes nor any microscopic pathology changes | signs of toxicity (dogs [5]; 1000 mg/kg): no signs of toxicity | signs of drug-related effects (dogs [5]; 1000 mg/kg/day): At no time in either dosing phase were any obvious signs of drug-related effects observed | competitive (with cGMP) binding to PDE5 (PDE5): does competitively (with cGMP) bind | IC50 (PDE1): 3 µM | IC50 (PDE4): 6 µM | macroscopic tissue changes at necropsy (rats [6]; 28 days): No macroscopic tissue changes | liver weights (rats [6]; 28 days, 2000 mg/kg/day): statistically significant increase in liver weights | thyroid weights (rats [6]; 28 days, 2000 mg/kg/day): statistically significant increases in thyroid weights | body weight changes, ophthalmoscopic examinations, hematological and blood chemistry values, urinalysis (rats [6]; [9]): unremarkable | clinical observations (rats [6]; [9]): no abnormal clinical observations | slight liver and thyroid weight increases (rats [6]; 28 days, lower doses): not statistically significant | histopathological evaluation of tissues (rats [6]; 28 days, small number of animals at 2000 mg/kg/day, one female at 500 mg/kg/day): traces of follicular cell hypertrophy, increased numbers of mitotic figures (suggestive of possible cell proliferation) in the thyroid gland and mild centrilobular hypertrophy in the liver | tolerability (dogs [7]; 91 days): well tolerated | feces observation (dogs [7]; 91 days, 150 and 300 mg/kg/day): Orange discoloration of the feces | body weights (dogs [7]; 91 days, highest dose group): Slightly lowered body weights | liver weights (dogs [7]; 91 days, highest dose group): increased liver weights | microscopic alterations (liver) (dogs [7]; 91 days, highest dose group): no microscopic alterations | route of elimination (suggested by feces colour) (dogs [7]; 91 days, oral): most of Compound 38 was being eliminated via the feces | toxicological effects (dogs [7]; oral, 91 consecutive days, 50, 150 and 300 mg/kg/day): no toxicological effects | Percentage of apoptotic cells (U937 cells; [10]): 78% | Number of apoptotic cells (U937 cells; [10]): 392/500 | Percentage of apoptotic cells (U937 cells; U937, no TPA treatment, 1 uM): 75% | Number of apoptotic cells (U937 cells; U937, no TPA treatment, 1 uM): 375/500 | apoptosis as reflected by active caspase 3 (FIG. 8) (U937 cells; U937 cells treated with compound 38): undergoing apoptosis | induction of apoptosis (U937 cells; differentiated and non-differentiated U937 cell line): causes the induction of apoptosis | level of TNF-α secreted (FIG. 12) [8]: significantly reduced

Reference: patent US20030073740A1, “Methods for treatment of lupus erythematosus” (priority 2001, published 2003)
